# From patent US20060069132A1, “Azolecarboxamide herbicides” (priority 2004, published 2006)
# Tests used:
# giant foxtail = test: Test B pre-/postemergence herbicide test; assay type: in vivo, Setaria faberi; conditions: for Foxtail, Giant plant response rating (0 to 100 scale) / Plant response rating, Foxtail, Giant: 0 = no effect, 100 = complete control; for Foxtail, Giant plant response rating: postemergence
# Method in brief: (§1)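 Visual rating, 0 (no effect) to 100 (complete control), versus untreated controls after 13–15 d in greenhouse. Pre- and postemergence applications (postemergence plants 2–18 cm, 1–4 leaves); flooded paddy arm at 2-leaf stage. Compounds in non-phytotoxic solvent plus surfactant.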
# pigweed = test: Test B pre-/postemergence herbicide test; assay type: in vivo, Amaranthus retroflexus; conditions: for Pigweed plant response rating (0 to 100 scale) / Plant response rating, Pigweed: 0 = no effect, 100 = complete control; for Pigweed plant response rating: postemergence
# Method in brief: as §1
# lambsquarters = test: Test B pre-/postemergence herbicide test; assay type: in vivo, Chenopodium album; conditions: for Lambsquarters plant response rating (0 to 100 scale) / Plant response rating, Lambsquarters: 0 = no effect, 100 = complete control; for Lambsquarters plant response rating: postemergence
# Method in brief: as §1
# ducksalad = test: Test B flooded paddy test; assay type: in vivo, Heteranthera limosa; conditions: 1000 g ai/ha, scale 0 to 100 (0 no effect, 100 complete control)
# Method in brief: (§2)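 Formulated test chemicals went onto postemergence plants measuring 2 to 18 cm, at one to four leaves. For the paddy assay, species had reached two leaves. Scoring took place 13–15 days later by eye, relative to untreated plants, using 0 for no effect up to 100 for full control.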
# barnyardgrass [1] = test: Test B flooded paddy test; assay type: in vivo, Echinochloa crus-galli; conditions: 1000 g ai/ha, scale 0 to 100 (0 no effect, 100 complete control)
# Method in brief: as §2
# wild oat = test: Test B postemergence herbicide test; assay type: in vivo, Avena fatua; conditions: postemergence
# Method in brief: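 Plants grow to 1- to 4-leaf stage (2–18 cm) for postemergence spraying, or to 2-leaf stage for the paddy test. Formulated compound is applied. Greenhouse holding lasts 13–15 days. Response is scored visually relative to controls, 0 no effect to 100 complete control; a dash means no result.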
# barnyardgrass [2] = test: Test B pre-/postemergence herbicide test; assay type: in vivo, Echinochloa crus-galli; conditions: for Barnyardgrass plant response rating (0 to 100 scale) / Plant response rating, Barnyardgrass: 0 = no effect, 100 = complete control; for Barnyardgrass plant response rating: postemergence
# Method in brief: (§3)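 Plants compared with untreated controls 13–15 days post-treatment and given a visual 0–100 injury score. Applications: preemergence to seeds; postemergence at 1- to 4-leaf (2–18 cm); paddy species flooded, 2-leaf stage. Vehicle non-phytotoxic, surfactant included.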
# corn = test: Test B pre-/postemergence herbicide test; assay type: in vivo, Zea mays; conditions: for Corn plant response rating (0 to 100 scale) / Plant response rating, Corn: 0 = no effect, 100 = complete control; for Corn plant response rating: postemergence
# Method in brief: as §1
# velvetleaf = test: Test B pre-/postemergence herbicide test; assay type: in vivo, Abutilon theophrasti; conditions: for Velvetleaf plant response rating: postemergence; for Plant response rating, Velvetleaf: 0 = no effect, 100 = complete control
# Method in brief: as §1
# cocklebur = test: Test B pre-/postemergence herbicide test; assay type: in vivo, Xanthium strumarium; conditions: for Cocklebur plant response rating (0 to 100 scale) / Plant response rating, Cocklebur: 0 = no effect, 100 = complete control; for Cocklebur plant response rating: postemergence
# Method in brief: as §3
# blackgrass = test: Test B postemergence herbicide test; assay type: in vivo, Alopecurus myosuroides; conditions: postemergence
# Method in brief: as §2
# morningglory = test: Test B pre-/postemergence herbicide test; assay type: in vivo, Ipomoea coccinea; conditions: for Morningglory plant response rating (0 to 100 scale) / Plant response rating, Morningglory: 0 = no effect, 100 = complete control; for Morningglory plant response rating: postemergence
# Method in brief: as §3
# large crabgrass = test: Test B pre-/postemergence herbicide test; assay type: in vivo, Digitaria sanguinalis; conditions: for Crabgrass, Large plant response rating (0 to 100 scale) / Plant response rating, Crabgrass, Large: 0 = no effect, 100 = complete control; for Crabgrass, Large plant response rating: postemergence
# Method in brief: as §1
# rice = test: Test B flooded paddy test; assay type: in vivo, Oryza sativa; conditions: 1000 g ai/ha, scale 0 to 100 (0 no effect, 100 complete control)
# Method in brief: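 Read-out: visual comparison with controls, scored 0 to 100, where 100 means complete control and 0 no effect. Formulated chemicals were applied postemergence to plants 2–18 cm tall (1- to 4-leaf), or to flooded-paddy plants at the 2-leaf stage, then held 13 to 15 days under glass.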
# [3] = test system: small flower umbrella sedge; test: Test B flooded paddy test; assay type: in vivo, Cyperus difformis; conditions: 1000 g ai/ha, scale 0 to 100 (0 no effect, 100 complete control)
# Method in brief: as §2
# [4] = 125 g ai/ha, visual rating, scale 0 (no effect) to 100 (complete control)
# [5] = 500 g ai/ha, visual rating, preemergence
# [6] = 500 g ai/ha, scale 0 to 100, 0 is no effect, 100 is complete control
# [7] = 125 g ai/ha, 0 is no effect, 100 is complete control, preemergence
smiles,measurement,setting,value
CCOC(=O)c1ccc(F)c(NC(=O)c2cc(C3(C)CC3)nn2CC)c1 [Compound 296],"Foxtail, Giant plant response rating (0 to 100 scale)","giant foxtail; 125 g ai/ha, preemergence",70
same,"Foxtail, Giant plant response rating",giant foxtail; [4],60
same,"Plant response rating, Foxtail, Giant",giant foxtail; [5],90
same,"Foxtail, Giant plant response rating",giant foxtail; [6],60
same,Pigweed plant response rating (0 to 100 scale),"pigweed; 125 g ai/ha, preemergence",70
same,Pigweed plant response rating,pigweed; [4],80
same,"Plant response rating, Pigweed",pigweed; [5],80
same,Pigweed plant response rating,pigweed; [6],100
same,Lambsquarters plant response rating (0 to 100 scale),"lambsquarters; 125 g ai/ha, preemergence",90
same,Lambsquarters plant response rating,lambsquarters; [4],50
same,"Plant response rating, Lambsquarters",lambsquarters; [5],100
same,Lambsquarters plant response rating,lambsquarters; [6],70
same,Ducksalad plant response rating,ducksalad,80
same,Barnyardgrass plant response rating,barnyardgrass [1],80
same,"Oat, Wild plant response rating",wild oat; [4],30
same,"Oat, Wild plant response rating",wild oat; [6],40
same,Barnyardgrass plant response rating (0 to 100 scale),"barnyardgrass [2]; 125 g ai/ha, preemergence",30
same,Barnyardgrass plant response rating,barnyardgrass [2]; [4],30
same,"Plant response rating, Barnyardgrass",barnyardgrass [2]; [5],60
same,Barnyardgrass plant response rating,barnyardgrass [2]; [6],80
same,Corn plant response rating (0 to 100 scale),"corn; 125 g ai/ha, preemergence",30
same,Corn plant response rating,corn; [4],30
same,"Plant response rating, Corn",corn; [5],40
same,Corn plant response rating,corn; [6],70
same,Velvetleaf plant response rating,velvetleaf; [4],90
same,"Plant response rating, Velvetleaf",velvetleaf; [5],80
same,Velvetleaf plant response rating,velvetleaf; [6],100
same,Cocklebur plant response rating (0 to 100 scale),"cocklebur; 125 g ai/ha, preemergence",0
same,Cocklebur plant response rating,cocklebur; [4],50
same,"Plant response rating, Cocklebur",cocklebur; [5],0
same,Cocklebur plant response rating,cocklebur; [6],60
same,Blackgrass plant response rating,blackgrass; [4],30
same,Blackgrass plant response rating,blackgrass; [6],40
same,Morningglory plant response rating (0 to 100 scale),"morningglory; 125 g ai/ha, preemergence",10
same,Morningglory plant response rating,morningglory; [4],50
same,"Plant response rating, Morningglory",morningglory; [5],20
same,Morningglory plant response rating,morningglory; [6],80
same,"Crabgrass, Large plant response rating (0 to 100 scale)","large crabgrass; 125 g ai/ha, preemergence",40
same,"Crabgrass, Large plant response rating",large crabgrass; [4],30
same,"Plant response rating, Crabgrass, Large",large crabgrass; [5],100
same,"Crabgrass, Large plant response rating",large crabgrass; [6],60
same,Rice plant response rating,rice,60
same,"Sedge, Umbrella plant response rating",[3],80
CCn1nc(C2(C)CC2)cc1C(=O)Nc1cccc(C(=O)N2CC=CC2)c1 [Compound 304],"Foxtail, Giant plant response rating (0 to 100 scale)","giant foxtail; 125 g ai/ha, preemergence",10
same,"Foxtail, Giant plant response rating",giant foxtail; [4],30
same,"Plant response rating, Foxtail, Giant",giant foxtail; [5],90
same,"Foxtail, Giant plant response rating",giant foxtail; [6],30
same,Pigweed plant response rating (0 to 100 scale),"pigweed; 125 g ai/ha, preemergence",100
same,Pigweed plant response rating,pigweed; [4],90
same,"Plant response rating, Pigweed",pigweed; [5],100
same,Pigweed plant response rating,pigweed; [6],90
same,Lambsquarters plant response rating (0 to 100 scale),"lambsquarters; 125 g ai/ha, preemergence",100
same,Lambsquarters plant response rating,lambsquarters; [4],80
same,"Plant response rating, Lambsquarters",lambsquarters; [5],100
same,Lambsquarters plant response rating,lambsquarters; [6],90
same,Ducksalad plant response rating,ducksalad,90
same,Barnyardgrass plant response rating,barnyardgrass [1],80
same,"Oat, Wild plant response rating",wild oat; [4],30
same,"Oat, Wild plant response rating",wild oat; [6],40
same,Barnyardgrass plant response rating (0 to 100 scale),"barnyardgrass [2]; 125 g ai/ha, preemergence",10
same,Barnyardgrass plant response rating,barnyardgrass [2]; [4],20
same,"Plant response rating, Barnyardgrass",barnyardgrass [2]; [5],70
same,Barnyardgrass plant response rating,barnyardgrass [2]; [6],20
same,Corn plant response rating (0 to 100 scale),"corn; 125 g ai/ha, preemergence",0
same,Corn plant response rating,corn; [4],40
same,Corn plant response rating,corn; [6],80
same,Velvetleaf plant response rating,velvetleaf; [4],10
same,"Plant response rating, Velvetleaf",velvetleaf; [5],100
same,Velvetleaf plant response rating,velvetleaf; [6],60
same,Cocklebur plant response rating (0 to 100 scale),"cocklebur; 125 g ai/ha, preemergence",0
same,Cocklebur plant response rating,cocklebur; [4],0
same,"Plant response rating, Cocklebur",cocklebur; [5],0
same,Cocklebur plant response rating,cocklebur; [6],100
same,Blackgrass plant response rating,blackgrass; [4],10
same,Blackgrass plant response rating,blackgrass; [6],40
same,Morningglory plant response rating (0 to 100 scale),"morningglory; 125 g ai/ha, preemergence",10
same,Morningglory plant response rating,morningglory; [4],100
same,"Plant response rating, Morningglory",morningglory; [5],10
same,Morningglory plant response rating,morningglory; [6],100
same,"Crabgrass, Large plant response rating (0 to 100 scale)","large crabgrass; 125 g ai/ha, preemergence",10
same,"Crabgrass, Large plant response rating",large crabgrass; [4],10
same,"Plant response rating, Crabgrass, Large",large crabgrass; [5],100
same,"Crabgrass, Large plant response rating",large crabgrass; [6],10
same,Rice plant response rating,rice,90
same,"Sedge, Umbrella plant response rating",[3],90
CCn1nc(C(C)(C)C)cc1C(=O)Nc1cccc(OC(F)(F)C(F)F)c1 [Compound 333],"Plant response rating (0 to 100 scale), Foxtail, Giant",giant foxtail; [7],10
same,"Foxtail, Giant plant response rating",giant foxtail; [4],30
same,"Plant response rating, Foxtail, Giant",giant foxtail; [5],20
same,"Foxtail, Giant plant response rating",giant foxtail; [6],40
same,"Plant response rating (0 to 100 scale), Pigweed",pigweed; [7],90
same,Pigweed plant response rating,pigweed; [4],90
same,"Plant response rating, Pigweed",pigweed; [5],100
same,Pigweed plant response rating,pigweed; [6],100
same,"Plant response rating (0 to 100 scale), Lambsquarters",lambsquarters; [7],40
same,Lambsquarters plant response rating,lambsquarters; [4],90
same,"Plant response rating, Lambsquarters",lambsquarters; [5],100
same,Lambsquarters plant response rating,lambsquarters; [6],100
same,Ducksalad plant response rating,ducksalad,80
same,Barnyardgrass plant response rating,barnyardgrass [1],50
same,"Oat, Wild plant response rating",wild oat; [4],40
same,"Oat, Wild plant response rating",wild oat; [6],60
same,"Plant response rating (0 to 100 scale), Barnyardgrass",barnyardgrass [2]; [7],0
same,Barnyardgrass plant response rating,barnyardgrass [2]; [4],10
same,"Plant response rating, Barnyardgrass",barnyardgrass [2]; [5],20
same,Barnyardgrass plant response rating,barnyardgrass [2]; [6],40
same,"Plant response rating (0 to 100 scale), Corn",corn; [7],0
same,Corn plant response rating,corn; [4],10
same,"Plant response rating, Corn",corn; [5],0
same,Corn plant response rating,corn; [6],10
same,"Plant response rating (0 to 100 scale), Velvetleaf",velvetleaf; [7],10
same,Velvetleaf plant response rating,velvetleaf; [4],50
same,Velvetleaf plant response rating,velvetleaf; [6],60
same,"Plant response rating (0 to 100 scale), Cocklebur",cocklebur; [7],0
same,Cocklebur plant response rating,cocklebur; [4],20
same,"Plant response rating, Cocklebur",cocklebur; [5],0
same,Cocklebur plant response rating,cocklebur; [6],80
same,Blackgrass plant response rating,blackgrass; [4],30
same,Blackgrass plant response rating,blackgrass; [6],70
same,"Plant response rating (0 to 100 scale), Morningglory",morningglory; [7],0
same,Morningglory plant response rating,morningglory; [4],30
same,"Plant response rating, Morningglory",morningglory; [5],10
same,Morningglory plant response rating,morningglory; [6],60
same,"Plant response rating (0 to 100 scale), Crabgrass, Large",large crabgrass; [7],40
same,"Crabgrass, Large plant response rating",large crabgrass; [4],40
same,"Plant response rating, Crabgrass, Large",large crabgrass; [5],70
same,"Crabgrass, Large plant response rating",large crabgrass; [6],100
same,Rice plant response rating,rice,20
same,"Sedge, Umbrella plant response rating",[3],80
